Measured values published in ChEMBL document CHEMBL1134083, “Discovery of a nuclease-resistant, non-natural dinucleotide that inhibits HIV-1 integrase” (Bioorg Med Chem Lett, 2001).

Legend:
[1] = molecular target: T1, Human immunodeficiency virus type 1 integrase (Human immunodeficiency virus 1, UniProt Q7ZJM1); assay: Inhibitory concentration required against recombinant wild type HIV integrase by reproducible assay (3' processing)
[2] = molecular target: T1, Human immunodeficiency virus type 1 integrase; assay: Inhibitory concentration required against recombinant wild type HIV integrase by reproducible assay (Strand transfer)

T1 sequence (Q7ZJM1 whole entry): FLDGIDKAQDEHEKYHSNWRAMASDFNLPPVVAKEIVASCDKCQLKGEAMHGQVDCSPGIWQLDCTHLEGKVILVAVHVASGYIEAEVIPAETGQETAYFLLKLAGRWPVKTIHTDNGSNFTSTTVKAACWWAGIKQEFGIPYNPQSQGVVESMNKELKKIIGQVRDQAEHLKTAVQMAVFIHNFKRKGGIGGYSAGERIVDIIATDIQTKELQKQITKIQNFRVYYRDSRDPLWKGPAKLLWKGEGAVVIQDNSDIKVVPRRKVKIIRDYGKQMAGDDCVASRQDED

Nc1ccn([C@H]2C[C@H](OP(=O)(O)OC[C@H]3OC[C@@H](n4ccc(=O)[nH]c4=O)[C@@H]3O)[C@@H](COP(=O)(O)O)O2)c(=O)n1 gave an IC50 [1] of 7.5 µM and an IC50 [2] of 5.9 µM.
